# Where “and” joins values, the source holds several entries; their conditions need not be identical. Identical values can stand only once. Toxic doses and inconclusive results are not listed.
# System: CD2F1 mice, L1210 leukemia ip, survival T/C
# Experiment: NCI In Vivo Anticancer Drug Screen. Data for tumor model L1210 Leukemia (intraperitoneal) in CD2F1 (CDF1) mice
# Details: higher = longer survival
# Procedure, shortened: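 Read-out first: treated-group measurement over vehicle-control measurement, expressed as a ratio. Animals bore a transplanted tumor line and were dosed with compound or vehicle.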
# [1] = endpoint: mean survival time, dose: 100.0 mg/kg/injection, schedule: Q04DX003 (ip), vehicle: saline with Tween-80
# [2] = endpoint: mean survival time, dose: 200.0 mg/kg/injection, schedule: Q04DX003 (ip), vehicle: saline with Tween-80
# [3] = endpoint: mean survival time, dose: 50.0 mg/kg/injection, schedule: Q04DX003 (ip), vehicle: saline with Tween-80
# [4] = endpoint: mean survival time, dose: 75.0 mg/kg/injection, schedule: Q01DX001 (ip), vehicle: saline
# [5] = endpoint: mean survival time, dose: 150.0 mg/kg/injection, schedule: Q01DX001 (ip), vehicle: saline
structure (smiles),measurement,setting,value
CCOC(=O)c1c(OC)cc2n(c1=O)Cc1cc3ccccc3nc1-2,T/C,"endpoint: mean survival time, dose: 25.0 mg/kg/injection, schedule: Q01DX009 (ip), vehicle: saline with Tween-80",98 % of control
same,T/C,"endpoint: mean survival time, dose: 50.0 mg/kg/injection, schedule: Q01DX009 (ip), vehicle: saline with Tween-80",98 % of control
same,T/C,"endpoint: mean survival time, dose: 100.0 mg/kg/injection, schedule: Q01DX009 (ip), vehicle: saline with Tween-80",101 % of control
same,T/C,[1],90 % of control
Cc1ccccc1N=C(NO)c1ccccc1,T/C,"endpoint: mean survival time, dose: 50.0 mg/kg/injection, schedule: Q01DX009 (ip), vehicle: saline",98 % of control
same,T/C,"endpoint: mean survival time, dose: 100.0 mg/kg/injection, schedule: Q01DX009 (ip), vehicle: saline",98 % of control
same,T/C,"endpoint: mean survival time, dose: 200.0 mg/kg/injection, schedule: Q01DX009 (ip), vehicle: saline",95 % of control
CC(C)(C)N1CC1CNC(=O)C(=O)NCC1CN1C(C)(C)C (stereo not drawn),T/C,"endpoint: mean survival time, dose: 0.78 mg/kg/injection, schedule: Q01DX009 (ip), vehicle: saline with Tween-80",100 % of control and 102 % of control
same,T/C,"endpoint: mean survival time, dose: 1.56 mg/kg/injection, schedule: Q01DX009 (ip), vehicle: saline with Tween-80",103 % of control and 105 % of control
same,T/C,"endpoint: mean survival time, dose: 3.12 mg/kg/injection, schedule: Q01DX009 (ip), vehicle: saline with Tween-80",114 % of control and 108 % of control
same,T/C,"endpoint: mean survival time, dose: 12.5 mg/kg/injection, schedule: Q01DX009 (ip), vehicle: saline with Tween-80",171 % of control and 201 % of control
same,T/C,"endpoint: mean survival time, dose: 12.5 mg/kg/injection, schedule: Q01DX009 (oral), vehicle: saline with Tween-80",150 % of control
same,T/C,"endpoint: median survival time, dose: 3.13 mg/kg/injection, schedule: Q01DX009 (ip), vehicle: saline with Tween-80",117 % of control
same,T/C,"endpoint: median survival time, dose: 6.25 mg/kg/injection, schedule: Q01DX009 (ip), vehicle: saline with Tween-80",158 % of control and 171 % of control
same,T/C,"endpoint: median survival time, dose: 12.5 mg/kg/injection, schedule: Q01DX009 (ip), vehicle: saline with Tween-80",273 % of control and 275 % of control
same,T/C,"endpoint: median survival time, dose: 25.0 mg/kg/injection, schedule: Q01DX009 (ip), vehicle: saline with Tween-80",117 % of control and 98 % of control
Nc1cccc2sccc12,T/C,"endpoint: mean survival time, dose: 100.0 mg/kg/injection, schedule: Q04DX003 (ip), vehicle: other",106 % of control
same,T/C,"endpoint: mean survival time, dose: 200.0 mg/kg/injection, schedule: Q04DX003 (ip), vehicle: other",113 % of control
same,T/C,"endpoint: mean survival time, dose: 400.0 mg/kg/injection, schedule: Q04DX003 (ip), vehicle: other",101 % of control
Nc1c(Cl)c(Cl)c(Br)c(Cl)c1Cl,T/C,[1],91 % of control
same,T/C,[2],105 % of control
same,T/C,"endpoint: mean survival time, dose: 400.0 mg/kg/injection, schedule: Q04DX003 (ip), vehicle: saline with Tween-80",97 % of control
Clc1ccc(-c2ccncc2)cc1,T/C,"endpoint: mean survival time, dose: 100.0 mg/kg/injection, schedule: Q04DX002 (ip), vehicle: saline with Tween-80",101 % of control
same,T/C,"endpoint: mean survival time, dose: 200.0 mg/kg/injection, schedule: Q04DX002 (ip), vehicle: saline with Tween-80",108 % of control
same,T/C,"endpoint: mean survival time, dose: 400.0 mg/kg/injection, schedule: Q04DX002 (ip), vehicle: saline with Tween-80",103 % of control
Cc1cccc([N+](=O)[O-])n1,T/C,"endpoint: mean survival time, dose: 25.0 mg/kg/injection, schedule: Q04DX003 (ip), vehicle: saline with Tween-80",109 % of control
same,T/C,[3],95 % of control
same,T/C,[1],98 % of control
NC(=O)CC(NC(=O)C(F)(F)F)C(=O)O (stereo not drawn),T/C,[4],101 % of control
same,T/C,[5],95 % of control
same,T/C,"endpoint: mean survival time, dose: 300.0 mg/kg/injection, schedule: Q01DX001 (ip), vehicle: saline",101 % of control
CC1CC(C)(C)C(C[NH-])C1[NH-].[Cl][Pt+2][Cl] (stereo not drawn),T/C,"endpoint: mean survival time, dose: 3.12 mg/kg/injection, schedule: Q04DX003 (ip), vehicle: saline",115 % of control
same,T/C,"endpoint: mean survival time, dose: 50.0 mg/kg/injection, schedule: Q04DX003 (ip), vehicle: saline",261 % of control
same,T/C,"endpoint: mean survival time, dose: 100.0 mg/kg/injection, schedule: Q04DX003 (ip), vehicle: saline",158 % of control and 211 % of control
same,T/C,"endpoint: mean survival time, dose: 200.0 mg/kg/injection, schedule: Q04DX003 (ip), vehicle: saline",94 % of control
CCOC(=O)c1[nH]c(=S)n(Cc2ccccc2)c1C(=O)OCC,T/C,[3],103 % of control
same,T/C,[1],108 % of control
same,T/C,[2],97 % of control
O=c1cc2cccccc-2cc1O,T/C,"endpoint: mean survival time, dose: 5.0 mg/kg/injection, schedule: Q01DX001 (ip), vehicle: saline",103 % of control
same,T/C,"endpoint: mean survival time, dose: 10.0 mg/kg/injection, schedule: Q01DX001 (ip), vehicle: saline",97 % of control
same,T/C,"endpoint: mean survival time, dose: 20.0 mg/kg/injection, schedule: Q01DX001 (ip), vehicle: saline",101 % of control
same,T/C,"endpoint: mean survival time, dose: 20.0 mg/kg/injection, schedule: Q04DX003 (ip), vehicle: saline with Tween-80",97 % of control
same,T/C,"endpoint: mean survival time, dose: 40.0 mg/kg/injection, schedule: Q01DX001 (ip), vehicle: saline",103 % of control
same,T/C,"endpoint: mean survival time, dose: 40.0 mg/kg/injection, schedule: Q04DX003 (ip), vehicle: saline with Tween-80",97 % of control
same,T/C,"endpoint: mean survival time, dose: 80.0 mg/kg/injection, schedule: Q01DX001 (ip), vehicle: saline",97 % of control
COc1cc2c(c3c1c(=O)c1cccc(F)c1n3C)C=CC(C)(C)O2,T/C,"endpoint: median survival time, dose: 50.0 mg/kg/injection, schedule: Q01DX009 (ip), vehicle: Klucel (hydroxypropylcellulose) (HPC)",118 % of control
same,T/C,"endpoint: median survival time, dose: 100.0 mg/kg/injection, schedule: Q01DX009 (ip), vehicle: Klucel (hydroxypropylcellulose) (HPC)",117 % of control
same,T/C,"endpoint: median survival time, dose: 200.0 mg/kg/injection, schedule: Q01DX009 (ip), vehicle: Klucel (hydroxypropylcellulose) (HPC)",120 % of control and 90 % of control
CCCCCC#CC1OC12CCCCC2 (stereo not drawn),T/C,"endpoint: mean survival time, dose: 12.5 mg/kg/injection, schedule: Q01DX009 (sc), vehicle: saline with Tween-80",97 % of control
same,T/C,"endpoint: mean survival time, dose: 25.0 mg/kg/injection, schedule: Q01DX009 (sc), vehicle: saline with Tween-80",104 % of control
same,T/C,"endpoint: mean survival time, dose: 50.0 mg/kg/injection, schedule: Q01DX009 (sc), vehicle: saline with Tween-80",98 % of control
same,T/C,"endpoint: mean survival time, dose: 100.0 mg/kg/injection, schedule: Q01DX009 (sc), vehicle: saline with Tween-80",103 % of control
same,T/C,"endpoint: mean survival time, dose: 200.0 mg/kg/injection, schedule: Q01DX009 (sc), vehicle: saline with Tween-80",98 % of control
[Cl][Pt+2][Cl].[NH-]CC1CCCC[N-]1 (stereo not drawn),T/C,"endpoint: mean survival time, dose: 6.25 mg/kg/injection, schedule: Q04DX003 (ip), vehicle: distilled water + Tween-80",121 % of control
same,T/C,"endpoint: mean survival time, dose: 12.5 mg/kg/injection, schedule: Q04DX003 (ip), vehicle: distilled water + Tween-80",115 % of control
same,T/C,"endpoint: mean survival time, dose: 25.0 mg/kg/injection, schedule: Q04DX003 (ip), vehicle: distilled water + Tween-80",150 % of control
same,T/C,"endpoint: mean survival time, dose: 50.0 mg/kg/injection, schedule: Q04DX003 (ip), vehicle: distilled water + Tween-80",123 % of control
same,T/C,"endpoint: mean survival time, dose: 200.0 mg/kg/injection, schedule: Q04DX003 (ip), vehicle: distilled water + Tween-80",91 % of control
same,T/C,"endpoint: median survival time, dose: 12.5 mg/kg/injection, schedule: Q04DX002 (ip), vehicle: saline",168 % of control
same,T/C,"endpoint: median survival time, dose: 25.0 mg/kg/injection, schedule: Q04DX002 (ip), vehicle: saline",158 % of control
Cn1c(=O)c2c(ncn2C2C(=O)NNC2=O)n(C)c1=O,T/C,"endpoint: mean survival time, dose: 12.5 mg/kg/injection, schedule: Q01DX005 (ip), vehicle: distilled water + Tween-80",102 % of control
same,T/C,"endpoint: mean survival time, dose: 25.0 mg/kg/injection, schedule: Q01DX005 (ip), vehicle: distilled water + Tween-80",104 % of control
same,T/C,"endpoint: mean survival time, dose: 50.0 mg/kg/injection, schedule: Q01DX005 (ip), vehicle: distilled water + Tween-80",104 % of control
same,T/C,"endpoint: mean survival time, dose: 100.0 mg/kg/injection, schedule: Q01DX005 (ip), vehicle: distilled water + Tween-80",98 % of control
same,T/C,"endpoint: mean survival time, dose: 200.0 mg/kg/injection, schedule: Q01DX005 (ip), vehicle: distilled water + Tween-80",92 % of control
same,T/C,"endpoint: mean survival time, dose: 400.0 mg/kg/injection, schedule: Q01DX005 (ip), vehicle: distilled water + Tween-80",95 % of control
O=C(/C=C/c1ccccn1)c1ccc(Cl)cc1,T/C,"endpoint: mean survival time, dose: 100.0 mg/kg/injection, schedule: Q01DX001 (ip), vehicle: Klucel (hydroxypropylcellulose) (HPC)",97 % of control
same,T/C,"endpoint: mean survival time, dose: 200.0 mg/kg/injection, schedule: Q01DX001 (ip), vehicle: Klucel (hydroxypropylcellulose) (HPC)",97 % of control
same,T/C,"endpoint: mean survival time, dose: 400.0 mg/kg/injection, schedule: Q01DX001 (ip), vehicle: Klucel (hydroxypropylcellulose) (HPC)",105 % of control
CCC(O)C[As](=O)(O)c1cccc(Cl)c1 (stereo not drawn),T/C,"endpoint: mean survival time, dose: 0.39 mg/kg/injection, schedule: Q01DX009 (ip), vehicle: saline",95 % of control
same,T/C,"endpoint: mean survival time, dose: 0.78 mg/kg/injection, schedule: Q01DX009 (ip), vehicle: saline",97 % of control
same,T/C,"endpoint: mean survival time, dose: 1.56 mg/kg/injection, schedule: Q01DX009 (ip), vehicle: saline",103 % of control
same,T/C,"endpoint: mean survival time, dose: 3.13 mg/kg/injection, schedule: Q01DX009 (ip), vehicle: saline",114 % of control
CNCc1ccc2c(c1)OCO2,T/C,[4],100 % of control
same,T/C,[5],103 % of control
CCCCCn1c(C)cc(/C=C\c2ccc3cc(C)ccc3[n+]2C)c1C,T/C,"endpoint: mean survival time, dose: 0.62 mg/kg/injection, schedule: Q01DX009 (ip), vehicle: Klucel (hydroxypropylcellulose) (HPC)",101 % of control
same,T/C,"endpoint: mean survival time, dose: 0.63 mg/kg/injection, schedule: Q01DX009 (ip), vehicle: Klucel (hydroxypropylcellulose) (HPC)",106 % of control
same,T/C,"endpoint: mean survival time, dose: 1.25 mg/kg/injection, schedule: Q01DX009 (ip), vehicle: Klucel (hydroxypropylcellulose) (HPC)",114 % of control and 107 % of control
